The structures appear in SMILES notation.

`*/C=C(\C#N)C(=O)OCCCCCCOC(=O)/C(C#N)=C/c1ccc2c(c1)c1cc(*)ccc1n2CCCCCCCCCCCOc1ccc(/C=C/c2ccc([N+](=O)[O-])cc2)cc1` (repeat unit) came in with a glass transition temperature of 87.00 °C.

The compound `*/C=C/c1cc(CCCCCCCCCCCCCCCC)c(/C=C/c2nc(*)c(C#N)c(/C=C/c3ccc(N(c4ccccc4)c4ccccc4)cc3)c2C#N)cc1CCCCCCCCCCCCCCCC` (repeat unit) returned a glass transition temperature of 165.00 °C.

`*/C=C/c1ccc(*)c(-c2ccc(OCC(CC)CCCC)c3ccccc23)c1` (repeat unit) displayed a glass transition temperature of 135.00 °C.

As to `*/C=C/c1ccc(*)c(OCc2cc(OCc3cc(OCCC(C)CCCC(C)C)cc(OCCC(C)CCCC(C)C)c3)cc(OCc3cc(OCC(CC)CCCC)cc(OCC(CC)CCCC)c3)c2)c1` (repeat unit), the glass transition temperature came out at 223.00 °C.

`*/C=C/c1ccc2c(c1)C(CC(CC)CCCC)(CC(CC)CCCC)c1cc(*)ccc1-2` (repeat unit) returned a glass transition temperature of 165.00 °C.

In the case of `*/C=C/c1ccc2c(c1)C(CCCCCC)(CCCCCC)c1cc(/C=C/c3nc(*)c(C#N)c(/C=C/c4ccc(N(c5ccccc5)c5ccccc5)cc4)c3C#N)ccc1-2` (repeat unit), the glass transition temperature came out at 178.00 °C.

Turning to `*/C=C/c1ccc2c(c1)Sc1cc(*)ccc1N2c1ccc(OCCCCCCCCCCCC)cc1` (repeat unit), the glass transition temperature stood at 129.00 °C.

Take `*/C=C/c1ccc2c3ccc(*)cc3n(-c3ccc(OCCCCCCCCCC)c(OCCCCCCCCCC)c3)c2c1` (repeat unit): the glass transition temperature turned out to be 95.00 °C.

`*/C=C/c1cccc(/C=C/[Si](C)(C)c2cccc([Si](*)(C)C)c2)c1` (repeat unit): the glass transition temperature turned out to be 28.70 °C.

In turn, `*/C=C/c1cccc(/C=C/[Si](C)(CCC(F)(F)F)c2ccc([Si](*)(C)CCC(F)(F)F)cc2)c1` (repeat unit) gave a glass transition temperature of 34.50 °C.

As for `*/C=C/c1cccc(/C=C/[Si](C)(CCC(F)(F)F)c2cccc([Si](*)(C)CCC(F)(F)F)c2)c1` (repeat unit), the glass transition temperature was found to be 9.50 °C.

`*/C=N/c1ccc(C(=O)OCCCCOCCCCOCCCCOC(=O)c2ccc(/N=C/c3ccc4c(c3)c3cc(*)ccc3n4CC(CC)CCCC)cc2)cc1` (repeat unit) yielded a glass transition temperature of 5.20 °C.

Compound `*C#Cc1cccc(C#C[SiH2]*)c1` (repeat unit) returned a glass transition temperature of 72.00 °C.

`*C(=O)Nc1cccc(NC(=O)/C=C/c2cccc(N3C(=O)c4ccc(*)cc4C3=O)c2)c1` (repeat unit) gave a glass transition temperature of 257.50 °C.

In turn, `*CC(=O)C(*)C` (repeat unit) came in with a glass transition temperature of 23.00 °C.

`*CC(=O)C(*)c1ccc(C(C)(C)C)cc1` (repeat unit) came in with a glass transition temperature of 158.00 °C.

`*CC(C)(C)C1C(=O)N(c2c(C)cccc2C)C(=O)C1*` (repeat unit) yielded a glass transition temperature of 237.00 °C.

For `*CC(C)(C)C1C(=O)N(c2ccccc2C)C(=O)C1*` (repeat unit), the glass transition temperature came to 207.00 °C.

`*CC(CC(C)C)S(*)(=O)=O` (repeat unit) gave a glass transition temperature of 23.00 °C.

In the case of `*CC(CC(Cl)(Cl)Cl)O*` (repeat unit), the glass transition temperature is -36.00 °C.

`*CC(CC)N(*)C(=O)CCCC` (repeat unit) showed a glass transition temperature of 52.00 °C.

`*CC(CC)O*` (repeat unit) gave a glass transition temperature of -71.50 °C.

`*CC(CC)S*` (repeat unit): the glass transition temperature was -47.00 °C.

`*CC(CCCCCC)O*` (repeat unit) came in with a glass transition temperature of -67.00 °C.

For the compound `*CC(COC(=O)CCCCCCCCCCN1C(=O)C2C3C=CC(C3)C2C1=O)O*` (repeat unit), the glass transition temperature is -31.00 °C.

Consider `*CC(COC(F)(C(F)(F)F)C(F)(F)F)O*` (repeat unit), for which the glass transition temperature is -43.00 °C.

The compound `*CC(COCC)O*` (repeat unit) gave a glass transition temperature of -61.00 °C.

Compound `*CC(COCCCC)O*` (repeat unit) had a glass transition temperature of -79.00 °C.

With `*CC(COc1ccc(-c2ccc(C#N)cc2)cc1)O*` (repeat unit), the glass transition temperature turned out to be 94.2 °C.

The compound `*CC(F)(F)CC(*)(C(F)(F)F)C(F)(F)F` (repeat unit) returned a glass transition temperature of 132.00 °C.

In turn, `*CC(OCCCC)C(C(=O)OC)C(*)C(=O)OC` (repeat unit) had a glass transition temperature of 32.50 °C.

The compound `*CC(OCCCC)C(C)(C(=O)OC)C(*)(C)C(=O)OC` (repeat unit) showed a glass transition temperature of 97.50 °C.

In turn, `*CCCC1(C)CCN(C(=O)CC(C)C(=O)N2CCC(*)(C)CC2)CC1` (repeat unit) registered a glass transition temperature of 72.00 °C.

With `*CCCCCCCCCCn1c2ccccc2c2cc(/C=C(\C#N)C(=O)OCCCCCCOC(=O)/C(C#N)=C/c3ccc4c(c3)c3ccccc3n4*)ccc21` (repeat unit), the glass transition temperature was 94.50 °C.

Turning to `*CCCCCCCCOc1c(OC)cc(/C=C/c2ccc(/C=C/c3ccc(/C=C/c4cc(OC)c(O*)c(OC)c4)cc3)cc2)cc1OC` (repeat unit), the glass transition temperature is 78.70 °C.

Compound `*CCCCCCCCOc1ccc(/C=C/c2cc(OCCCCCCCC)c(/C=C/c3ccc(O*)cc3)cc2OCCCCCCCC)cc1` (repeat unit) yielded a glass transition temperature of 130.00 °C.

`*CCCCCCNC(=O)C(CC)CC(CC)C(=O)N*` (repeat unit): the glass transition temperature was 94.00 °C.

As to `*CCCCCNC(=O)CC(=O)N*` (repeat unit), the glass transition temperature is 65.00 °C.

`*CCCCNC(=O)CC(=O)N*` (repeat unit) returned a glass transition temperature of 73.00 °C.

For the compound `*CCOCCOC(=O)CC(=O)O*` (repeat unit), the glass transition temperature is -41.50 °C.

`*CCOCCOCCOc1ccc(/C=C/c2cc(OC)c(/C=C/c3ccc(O*)c4ccccc34)cc2OC)c2ccccc12` (repeat unit) returned a glass transition temperature of 79.50 °C.

For the compound `*Nc1ccc(-c2ccc(NC(=O)Cc3cc(C)c(CC(*)=O)cc3C)cc2)cc1` (repeat unit), the glass transition temperature is 171.00 °C.

`*Nc1ccc(NC(=O)Cc2cc(CC(*)=O)c(C)cc2C)cc1` (repeat unit) showed a glass transition temperature of 208.00 °C.

Take `*Nc1cccc(NC(=O)Cc2cc(C)c(CC(*)=O)cc2C)c1` (repeat unit): the glass transition temperature worked out at 249.00 °C.

In the case of `*OC(CC(*)=O)C(C)(Cl)Cl` (repeat unit), the glass transition temperature turned out to be 109.00 °C.

Compound `*OC(CC)CC(*)=O` (repeat unit) had a glass transition temperature of -15.40 °C.

Regarding `*OC(CCOc1ccccc1)CC(*)=O` (repeat unit), the glass transition temperature is 20.00 °C.

Turning to `*Oc1ccc(S(=O)(=O)c2ccc(Oc3ccc(/C=C4\CC/C(=C\c5ccc(*)cc5)C4=O)cc3)cc2)cc1` (repeat unit), the glass transition temperature was determined as 235.00 °C.

In turn, `*c1cc(C)c(/N=C/c2ccc(OCc3ccccc3COc3ccc(/C=N/c4cc(C)c(N5C(=O)c6ccc7c8ccc9c%10c(ccc(c%11ccc(c6c7%11)C5=O)c%108)C(=O)N(*)C9=O)cc4C)cc3OC)c(OC)c2)cc1C` (repeat unit) displayed a glass transition temperature of 143.00 °C.

`*c1ccc(Oc2ccc(/C=C/c3ccc(Oc4ccc(-c5nnc(*)o5)cc4)c4ccccc34)cc2)cc1` (repeat unit): the glass transition temperature was found to be 213.00 °C.

The record behind these values is the PolyMetriX glass transition set.
